The series is described as follows: In vivo pharmacokinetics in mice. Particulars: mouse, iv, 3 mg/kg.

Experimental findings from publication PMC3365829 (ACS medicinal chemistry letters, 2012) are described below.

A word on the clearance: it is the volume of plasma or blood freed of the substance per unit of time. A lower clearance goes with inefficient removal.

In turn, `CCCCNc1ncc2c(-c3ccc(F)cc3)nn(C[C@H]3CC[C@H](N)CC3)c2n1` [Compound 43] came in with a clearance of 1.17 L/h/kg.
